Marks after values point to notes of the source that are not given here.
Tests used:
[1] = system: back skins of C57BL/6 mice; test: PASI score of back skin of mice after continuous application of 5% imiquimod ointment (model induction); type: in vivo, mouse; details: 62.5 mg 5% imiquimod ointment on back skin, mean ± SD
Excerpt: (§1) 16 C57BL/6 mice, with half male and half female were purchased from the Experimental Animal Center of Nanjing Medical University, wherein weights of the mice ranged from 18 g to 20 g. Back hair of the mice was shaved off, and then the mice were randomly divided into 2 groups (8 mice in each group) according to male and female genders. Before experiment, the mice were placed in a quiet environment kept away from strong light for 3 days to adapt to the environment, a ratio of an illuminating time to a dark time was 1:1, a room temperature was controlled at 25° C., a humidity was 55%, and the mice could eat and drink freely. 62.5 mg of 5% (0.1 g:2 g) imiquimod ointment (Zhuhai United Laboratories Co., Ltd.) was continuously applied to back skins of the mice for 6 days to induce a psoriasis-like lesion, while the same dose of vaseline ointment was given to the control group. The back skins of the mice were photographed and recorded on the 1st, 3rd and 5th days of modeling and skin appearances on the 5th day of modeling were shown in FIG. 2A.
(§2) The clinical symptom of the mouse psoriasis model was evaluated by a PASI scoring standard from three indicators of erythema, scale and infiltration thickening. The scores ranged from 0 point to 4 points, and a total score was obtained by adding scores of the three indicators. The PASI scoring standard was as follows: 0 point referred to no symptom; 1 point referred to a mild degree; 2 points referred to a moderate degree; 3 points referred to a severe degree; and 4 points referred to an extremely severe degree. The PASI evaluation was conducted daily before the IMQ ointment was applied. It should be noted that measurement data was represented by mean±standard deviation (mean±SD), and was detected by One-Way ANOVA, wherein in the analysis results, ** represented that P<0.01, which was relative to the vaseline group.

[2] = system: mouse psoriasis model induced by 5% IMQ; test: PASI score of mouse psoriasis model induced by imiquimod under drug intervention; type: in vivo; details: 0.1% dexamethasone s.c. 100 μL twice a day + imiquimod, n = 8, mean ± SD
Excerpt: as §1, with “group.” for “group. The back skins of the mice were photographed and recorded on the 1st, 3rd and 5th days of modeling and skin appearances on the 5th day of modeling were shown in FIG. 2A.”
as §2, with “applied.” for “applied. It should be noted that measurement data was represented by mean±standard deviation (mean±SD), and was detected by One-Way ANOVA, wherein in the analysis results, ** represented that P<0.01, which was relative to the vaseline group.”
C57BL/6 mice, with half male and half female were purchased from the Experimental Animal Center of Nanjing Medical University, wherein weights of the mice ranged from 18 g to 20 g. The C57BL/6 mice were randomly divided into 4 groups (8 mice in each group). Mouse psoriasis models were established as described in Embodiment 2 (1). […]
Back skins of the mice were photographed and recorded on the 1st, 3rd and 5th days after modeling.

Row | SMILES | PASI score ([1]; day 1) | PASI score ([1]; day 2) | PASI score ([1]; day 3) | PASI score ([1]; day 4) | PASI score ([1]; day 5) | PASI score ([2]; day 1) | PASI score ([2]; day 2) | PASI score ([2]; day 3) | PASI score ([2]; day 4) | PASI score ([2]; day 5)
1 | CC(C)Cn1cnc2c(N)nc3ccccc3c21 [Imiquimod, imiquimod] | 0.0 ± 0.0 | 1.5 ± 0.8 | 4.5 ± 2.2** | 6.8 ± 1.7** | 9.8 ± 1.3** | – | – | – | – | –
2 | C[C@@H]1C[C@H]2[C@@H]3CCC4=CC(=O)C=C[C@]4(C)[C@@]3(F)[C@@H](O)C[C@]2(C)[C@@]1(O)C(=O)CO [Dexamethasone, dexamethasone, reference compound] | – | – | – | – | – | 0.0 ± 0.0 | 0.3 ± 0.5 | 0.8 ± 0.5 | 1.5 ± 1.0 | 2.3 ± 0.9

— patent publication US11304926B2, “Application of transient receptor potential cation channel TRPV3 in developing drug for preventing or treating psoriasis” (CHINA PHARMACEUTICAL UNIVERSITY, priority 2019, dated 2022)
